Data published in ChEMBL document CHEMBL1201862, “PubChem BioAssay data set” (2004).
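In this assay, cells in 96-well plates receive the compound at five concentrations for 48 hours. Endpoints are linearly interpolated between the surrounding concentrations. GI50 marks 50% less growth.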 Active and inactive are the calls of the source. Rule as the data show it: active = GI50 up to about 1.1 µM and inactive = higher.

Experiments:
Assay in all cases: NCI-60 cell line screen, 48 h
KM12 = test system: KM12
COLO 205 = test system: COLO 205
UO-31 = test system: UO-31
NCI-H23 = test system: NCI-H23
HL-60 = test system: HL-60
HOP-92 = test system: HOP-92
OVCAR-4 = test system: OVCAR-4
CCRF-CEM = test system: CCRF-CEM
HCT-116 = test system: HCT-116
SN12C = test system: SN12C
K562 = test system: K562
SNB-19 = test system: SNB-19
LOX IMVI = test system: LOX IMVI
SF-268 = test system: SF-268
A549 = test system: A549
HT-29 = test system: HT-29
SF-295 = test system: SF-295
OVCAR-8 = test system: OVCAR-8
UACC-62 = test system: UACC-62
SNB-75 = test system: SNB-75

Compound: CCOC(=O)c1c(Cl)nc2ccccc2c1N=[N+]=[N-]
- GI50 (KM12): 16.2 µM (inactive)
- GI50 (COLO 205): 21.5 µM (inactive)
- GI50 (UO-31): 18.7 µM (inactive)
- GI50 (NCI-H23): 27.7 µM (inactive)
- GI50 (HL-60): 67 µM (inactive)
- GI50 (HOP-92): 24.7 µM (inactive)
- GI50 (OVCAR-4): 16.9 µM (inactive)
- GI50 (CCRF-CEM): 41 µM (inactive)
- GI50 (HCT-116): 20.7 µM (inactive)
- GI50 (SN12C): 16.8 µM (inactive)
- GI50 (K562): 69.5 µM (inactive)
- GI50 (SNB-19): > 100 µM (inactive)
- GI50 (LOX IMVI): 20.5 µM (inactive)
- GI50 (SF-268): 16.4 µM (inactive)
- GI50 (A549): 66.8 µM (inactive)
- GI50 (HT-29): 19.6 µM (inactive)
- GI50 (SF-295): 23.9 µM (inactive)

Compound: CC(C)=CCC/C(C)=C/CC/C(C)=C/C(O)c1ccccc1 (stereo not drawn)
- GI50 (KM12): 23.6 µM (inactive)
- GI50 (COLO 205): 18.5 µM (inactive)
- GI50 (UO-31): 21 µM (inactive)
- GI50 (NCI-H23): 22.7 µM (inactive)
- GI50 (HL-60): 22.5 µM (inactive)
- GI50 (OVCAR-4): > 10 µM (inactive)
- GI50 (CCRF-CEM): 23.1 µM (inactive)
- GI50 (OVCAR-8): 20.6 µM (inactive)
- GI50 (HCT-116): 17.9 µM (inactive)
- GI50 (SN12C): 19.1 µM (inactive)
- GI50 (K562): 61.4 µM (inactive)
- GI50 (SNB-19): 20.2 µM (inactive)
- GI50 (LOX IMVI): 19.6 µM (inactive)
- GI50 (SF-268): 18.9 µM (inactive)
- GI50 (HT-29): 18.4 µM (inactive)
- GI50 (SF-295): 18.1 µM (inactive)
- GI50 (UACC-62): 17 µM (inactive)

Compound: O=C(O)C(SC(=S)c1ccc(C(=S)SC(C(=O)O)c2ccccc2)cc1)c1ccccc1 (stereo not drawn)
- GI50 (KM12): > 100 µM (inactive)
- GI50 (SNB-75): 35 µM (inactive)
- GI50 (UO-31): 92.7 µM (inactive)
- GI50 (NCI-H23): > 100 µM (inactive)
- GI50 (HL-60): > 100 µM (inactive)
- GI50 (HOP-92): > 100 µM (inactive)
- GI50 (CCRF-CEM): > 100 µM (inactive)
- GI50 (OVCAR-8): > 100 µM (inactive)
- GI50 (HCT-116): > 100 µM (inactive)
- GI50 (SN12C): > 100 µM (inactive)
- GI50 (K562): 44.5 µM (inactive)
- GI50 (SNB-19): 46.6 µM (inactive)
- GI50 (LOX IMVI): 50.6 µM (inactive)
- GI50 (SF-268): 97.3 µM (inactive)
- GI50 (A549): > 100 µM (inactive)
- GI50 (HT-29): 67.1 µM (inactive)
- GI50 (SF-295): > 100 µM (inactive)
- GI50 (UACC-62): 47.3 µM (inactive)

Compound: O=C(Nc1nccs1)c1c(O)nc2sccn2c1=O
- GI50 (KM12): > 10 µM (inactive)
- GI50 (SNB-75): > 10 µM (inactive)
- GI50 (COLO 205): > 10 µM (inactive)
- GI50 (UO-31): 6.55 µM (inactive)
- GI50 (NCI-H23): > 10 µM (inactive)
- GI50 (HL-60): > 10 µM (inactive)
- GI50 (OVCAR-4): > 10 µM (inactive)
- GI50 (CCRF-CEM): > 10 µM (inactive)
- GI50 (OVCAR-8): > 10 µM (inactive)
- GI50 (HCT-116): > 10 µM (inactive)
- GI50 (SN12C): > 10 µM (inactive)
- GI50 (SNB-19): > 10 µM (inactive)
- GI50 (LOX IMVI): > 10 µM (inactive)
- GI50 (SF-268): > 10 µM (inactive)
- GI50 (A549): > 10 µM (inactive)
- GI50 (HT-29): > 10 µM (inactive)
- GI50 (SF-295): > 10 µM (inactive)
- GI50 (UACC-62): > 10 µM (inactive)

Compound: COc1ccc(Nc2cnc3cc(N)ccc3n2)cc1OC
- GI50 (KM12): 70.5 µM (inactive)
- GI50 (SNB-75): > 100 µM (inactive)
- GI50 (COLO 205): > 100 µM (inactive)
- GI50 (UO-31): > 100 µM (inactive)
- GI50 (NCI-H23): 26.9 µM (inactive)
- GI50 (HL-60): 26.7 µM (inactive)
- GI50 (HOP-92): 7.62 µM (inactive)
- GI50 (CCRF-CEM): 37.4 µM (inactive)
- GI50 (OVCAR-8): 37.4 µM (inactive)
- GI50 (HCT-116): 86.1 µM (inactive)
- GI50 (SN12C): 39.3 µM (inactive)
- GI50 (K562): 46.8 µM (inactive)
- GI50 (LOX IMVI): 37.1 µM (inactive)
- GI50 (SF-268): 74.1 µM (inactive)
- GI50 (HT-29): > 100 µM (inactive)
- GI50 (SF-295): 34.3 µM (inactive)
- GI50 (UACC-62): 72.3 µM (inactive)

Compound: C1=CCN(c2ccccc2)CC1
- GI50 (KM12): 64.9 µM (inactive)
- GI50 (SNB-75): 33.1 µM (inactive)
- GI50 (COLO 205): 34.5 µM (inactive)
- GI50 (UO-31): > 100 µM (inactive)
- GI50 (NCI-H23): 31.5 µM (inactive)
- GI50 (HL-60): 11.9 µM (inactive)
- GI50 (HOP-92): 21.2 µM (inactive)
- GI50 (CCRF-CEM): 6.38 µM (inactive)
- GI50 (OVCAR-8): 27 µM (inactive)
- GI50 (HCT-116): 29.6 µM (inactive)
- GI50 (SN12C): 26.3 µM (inactive)
- GI50 (K562): 30.1 µM (inactive)
- GI50 (SNB-19): > 100 µM (inactive)
- GI50 (LOX IMVI): 43.9 µM (inactive)
- GI50 (SF-268): 36.6 µM (inactive)
- GI50 (A549): > 100 µM (inactive)
- GI50 (HT-29): 23.6 µM (inactive)
- GI50 (SF-295): > 100 µM (inactive)
- GI50 (UACC-62): 30.3 µM (inactive)

Compound: CC(Cc1ccccc1)NC1=NCCO1 (stereo not drawn)
- GI50 (SNB-75): 43.3 µM (inactive)
- GI50 (COLO 205): 17.5 µM (inactive)
- GI50 (UO-31): 23.6 µM (inactive)
- GI50 (NCI-H23): 24.9 µM (inactive)
- GI50 (HOP-92): 26.9 µM (inactive)
- GI50 (OVCAR-4): 36.2 µM (inactive)
- GI50 (OVCAR-8): 48.1 µM (inactive)
- GI50 (HCT-116): 18 µM (inactive)
- GI50 (SN12C): 21.8 µM (inactive)
- GI50 (SNB-19): 35.6 µM (inactive)
- GI50 (LOX IMVI): 18.2 µM (inactive)
- GI50 (A549): 38.8 µM (inactive)
- GI50 (HT-29): 20.1 µM (inactive)
- GI50 (SF-295): > 100 µM (inactive)
- GI50 (UACC-62): 52.4 µM (inactive)

Compound: CC(=O)c1ccc(NC(=O)/C(CC(=O)/C=C/c2ccccc2)=N/NC(N)=S)cc1
- GI50 (KM12): 44.4 µM (inactive)
- GI50 (SNB-75): > 100 µM (inactive)
- GI50 (UO-31): 41.1 µM (inactive)
- GI50 (NCI-H23): 60 µM (inactive)
- GI50 (HL-60): 80.7 µM (inactive)
- GI50 (HOP-92): > 100 µM (inactive)
- GI50 (OVCAR-4): 49.5 µM (inactive)
- GI50 (OVCAR-8): 87.7 µM (inactive)
- GI50 (HCT-116): > 100 µM (inactive)
- GI50 (SN12C): > 100 µM (inactive)
- GI50 (K562): 75.3 µM (inactive)
- GI50 (LOX IMVI): > 100 µM (inactive)
- GI50 (SF-268): > 100 µM (inactive)
- GI50 (A549): > 100 µM (inactive)
- GI50 (HT-29): 41.5 µM (inactive)
- GI50 (SF-295): > 100 µM (inactive)
- GI50 (UACC-62): > 100 µM (inactive)

Compound: CC(C)OP(=O)(OC(C)C)/C(F)=N/Nc1ccc([N+](=O)[O-])cc1
- GI50 (KM12): 91.2 µM (inactive)
- GI50 (SNB-75): 38.7 µM (inactive)
- GI50 (COLO 205): > 100 µM (inactive)
- GI50 (UO-31): > 100 µM (inactive)
- GI50 (NCI-H23): > 100 µM (inactive)
- GI50 (HL-60): > 100 µM (inactive)
- GI50 (HOP-92): > 100 µM (inactive)
- GI50 (OVCAR-4): > 100 µM (inactive)
- GI50 (CCRF-CEM): > 100 µM (inactive)
- GI50 (OVCAR-8): > 100 µM (inactive)
- GI50 (HCT-116): > 100 µM (inactive)
- GI50 (SN12C): > 100 µM (inactive)
- GI50 (K562): > 100 µM (inactive)
- GI50 (SNB-19): > 100 µM (inactive)
- GI50 (SF-268): > 100 µM (inactive)
- GI50 (A549): > 100 µM (inactive)
- GI50 (HT-29): > 100 µM (inactive)
- GI50 (SF-295): > 100 µM (inactive)
- GI50 (UACC-62): > 100 µM (inactive)

Compound: CCc1ccc2nc(-c3ccc(O)cc3)sc2c1
- GI50 (KM12): 14.3 µM (inactive)
- GI50 (COLO 205): 15.3 µM (inactive)
- GI50 (UO-31): 11.8 µM (inactive)
- GI50 (NCI-H23): 16.1 µM (inactive)
- GI50 (HL-60): 2.96 µM (inactive)
- GI50 (OVCAR-8): 19.5 µM (inactive)
- GI50 (HCT-116): 16.7 µM (inactive)
- GI50 (SN12C): 14.6 µM (inactive)
- GI50 (K562): 19.6 µM (inactive)
- GI50 (SNB-19): 14.7 µM (inactive)
- GI50 (LOX IMVI): 16.3 µM (inactive)
- GI50 (SF-268): 17.4 µM (inactive)
- GI50 (A549): 17.9 µM (inactive)
- GI50 (HT-29): 16.6 µM (inactive)
- GI50 (SF-295): 16.8 µM (inactive)
- GI50 (UACC-62): 12.4 µM (inactive)

Compound: Nc1ccc(S(=O)(=O)c2ccc(NCN3C(=O)NC(=O)C(=O)C3=O)cc2)cc1 [ALLANTODAPSONE]
- GI50 (KM12): > 100 µM (inactive)
- GI50 (UO-31): > 100 µM (inactive)
- GI50 (NCI-H23): > 100 µM (inactive)
- GI50 (HOP-92): > 100 µM (inactive)
- GI50 (OVCAR-4): > 100 µM (inactive)
- GI50 (CCRF-CEM): 95.7 µM (inactive)
- GI50 (OVCAR-8): > 100 µM (inactive)
- GI50 (HCT-116): > 100 µM (inactive)
- GI50 (SN12C): > 100 µM (inactive)
- GI50 (K562): > 100 µM (inactive)
- GI50 (SNB-19): > 100 µM (inactive)
- GI50 (LOX IMVI): > 100 µM (inactive)
- GI50 (SF-268): > 100 µM (inactive)
- GI50 (A549): > 100 µM (inactive)
- GI50 (HT-29): > 100 µM (inactive)
- GI50 (SF-295): > 100 µM (inactive)
- GI50 (UACC-62): > 100 µM (inactive)

Compound: CC[n+]1c(-c2ccccc2)c2cc(N)ccc2c2ccc(N)cc21 [HOMIDIUM BROMIDE]
- GI50 (KM12): 2.49 µM (inactive)
- GI50 (SNB-75): 0.0372 µM (active)
- GI50 (COLO 205): 1.68 µM (inactive)
- GI50 (NCI-H23): 1.53 µM (inactive)
- GI50 (HL-60): 5.97 µM (inactive)
- GI50 (HOP-92): 2.24 µM (inactive)
- GI50 (OVCAR-4): 4.44 µM (inactive)
- GI50 (HCT-116): 3.62 µM (inactive)
- GI50 (SN12C): 3.24 µM (inactive)
- GI50 (K562): 2.96 µM (inactive)
- GI50 (A549): 11.9 µM (inactive)
- GI50 (HT-29): 3.67 µM (inactive)
- GI50 (SF-295): 2.82 µM (inactive)
